Experimental findings from patent publication US20150132328A1 (priority 2011, published 2015) are described below.

The test concerns newborn rat thymocytes. The source says:
It was used an octapeptide with similar weight for the elaboration of the complex, to which was just the proline (4) and Glycine (5) original amino acids were interchanged by proline (4) and Glycine (5) resulting as […].

Where two headings read alike, the source gives them in different places.

Consider Peptide LEDGPKFL + Zinc [IMMP], for which the “Increase of thymocytes proliferation” value (10^-10 M, With-A) worked out at 35%. Further, the “Proliferation (% with respect to the control)” value by setting is: (10^−6 (918 ng/mL), 24 hours) 106.6 ± 3.0%; (10^−6 (918 ng/mL), Con A 50 pg/mL) 126.6 ± 3.0%; (10^−7 (91.8 ng/mL), 24 hours) 125.1 ± 2.6 %; (10^−7 (91.8 ng/mL), Con A 50 pg/mL) 125.1 ± 2.6 %; (10^−7.5 (9.58 ng/mL), Con A 50 pg/mL) 127.4 ± 3.0 %; (10^−8 (9.18 ng/mL), 24 hours) 120.3 ± 2.7 %. The “Proliferation (% with respect to the control)” value came to 128.3 ± 2.7 % (10^−8 (9.18 ng/mL), Con A 50 pg/mL); 123.3 ± 3.4 % (10^−9 (0.91 ng/mL), 24 hours); 133.3 ± 3.4 % (10^−9 (0.91 ng/mL), Con A 50 pg/mL); 135.6 ± 3.1 % (10^−10 (0.09 ng/mL), 24 hours); 135.6 ± 3.1 % (10^−10 (0.09 ng/mL), Con A 50 pg/mL); 130.5 ± 1.4 % (10^−11 (0.009 ng/mL), 24 hours). Besides, the “Proliferation (% with respect to the control)” value amounted to 130.5 ± 1.4 % (10^−11 (0.009 ng/mL), Con A 50 pg/mL) and 120.3 ± 3.2 % (10^−12 (0.0009 ng/mL), Con A 50 pg/mL).
